From PMC5434554, “Structural similarities and functional differences clarify evolutionary relationships between tRNA healing enzymes and the myelin enzyme CNPase” (BMC Biochemistry, 2017)

What was measured:
Assay in all cases: thermal shift assay, SYPRO Orange
Assay type in all cases: binding
ScTrl1 PNK/CPDase = molecular target: T1, ScTrl1 PNK/CPDase (Saccharomyces cerevisiae, UniProt P09880); settings: 1000 µM; 50 mM HEPES pH 7.5, 150 mM NaCl, 1 mM ligand; ligand-free reference in the 1st table, row 3
T1 construct: gene TRL1; PNK + CPDase domains of Trl1 (C-terminal part, ligase domain absent); N-terminal His6-3C tag cleaved; E. coli Rosetta(DE3); monomer
T1 sequence (P09880 389-827 limits assumed): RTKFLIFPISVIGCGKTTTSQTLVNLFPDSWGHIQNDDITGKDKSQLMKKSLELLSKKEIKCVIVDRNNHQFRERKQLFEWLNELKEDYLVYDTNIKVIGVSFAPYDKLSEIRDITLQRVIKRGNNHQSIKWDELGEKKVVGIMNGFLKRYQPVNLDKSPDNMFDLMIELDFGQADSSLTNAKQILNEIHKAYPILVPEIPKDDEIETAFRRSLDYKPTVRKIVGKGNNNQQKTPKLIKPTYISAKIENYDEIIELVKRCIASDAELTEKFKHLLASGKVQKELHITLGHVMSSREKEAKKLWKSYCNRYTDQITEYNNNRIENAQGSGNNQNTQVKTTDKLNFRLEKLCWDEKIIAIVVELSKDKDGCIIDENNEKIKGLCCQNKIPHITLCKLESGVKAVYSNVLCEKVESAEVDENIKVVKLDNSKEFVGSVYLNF
From the text: thermal shift assay, SYPRO Orange on ScTrl1 PNK/CPDase

BfPNK/CPDase = molecular target: T2, BfPNK/CPDase (Branchiostoma floridae, UniProt A0A9J7HK91); settings: 1000 µM; 50 mM HEPES pH 7.5, 150 mM NaCl, 1 mM ligand; ligand-free reference in the 1st table, row 9
T2 construct: gene LOC118405679; full length; N-terminal His6-3C tag cleaved; from E. coli Rosetta(DE3); monomer under reducing conditions
T2 sequence (A0A9J7HK91 entry or part of it): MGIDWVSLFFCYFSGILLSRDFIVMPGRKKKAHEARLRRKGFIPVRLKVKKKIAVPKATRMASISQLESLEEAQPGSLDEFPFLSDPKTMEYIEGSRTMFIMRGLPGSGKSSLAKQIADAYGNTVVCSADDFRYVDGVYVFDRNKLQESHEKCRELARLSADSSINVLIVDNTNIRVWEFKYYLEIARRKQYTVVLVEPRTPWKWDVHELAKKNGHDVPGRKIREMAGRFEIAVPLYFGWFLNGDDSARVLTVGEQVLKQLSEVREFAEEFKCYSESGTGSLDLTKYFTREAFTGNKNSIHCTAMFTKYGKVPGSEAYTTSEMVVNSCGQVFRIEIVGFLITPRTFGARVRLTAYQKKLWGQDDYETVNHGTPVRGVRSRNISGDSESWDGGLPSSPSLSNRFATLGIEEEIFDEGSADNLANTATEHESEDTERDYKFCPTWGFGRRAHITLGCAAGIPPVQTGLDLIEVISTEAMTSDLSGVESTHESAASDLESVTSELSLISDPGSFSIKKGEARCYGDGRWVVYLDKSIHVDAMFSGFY
From the text: thermal shift assay, SYPRO Orange on BfPNK/CPDase

ScTrl1 CPDase = molecular target: T3, ScTrl1 CPDase (Saccharomyces cerevisiae, UniProt P09880); settings: 1000 µM; 50 mM HEPES pH 7.5, 150 mM NaCl, 1 mM ligand; ligand-free reference in the 1st table, row 6
T3 construct: gene TRL1; not the N+ or N- variants; N-terminal His6-3C tag cleaved; E. coli Rosetta(DE3); monomer
T3 sequence (P09880 561-827 limits assumed): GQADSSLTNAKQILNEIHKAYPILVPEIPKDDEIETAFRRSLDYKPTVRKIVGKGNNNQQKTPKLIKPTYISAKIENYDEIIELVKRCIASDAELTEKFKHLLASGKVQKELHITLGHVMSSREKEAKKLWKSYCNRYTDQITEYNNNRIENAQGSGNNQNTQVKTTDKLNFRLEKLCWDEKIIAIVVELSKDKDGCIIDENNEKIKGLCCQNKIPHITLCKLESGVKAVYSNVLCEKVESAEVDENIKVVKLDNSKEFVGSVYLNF
From the text: thermal shift assay, SYPRO Orange on ScTrl1 CPDase

Tm (°C) (ScTrl1 PNK/CPDase): 63 °C | Tm (°C) (BfPNK/CPDase): 48 °C | Tm (°C) (ScTrl1 CPDase): 72 °C
Structure (SMILES): NC(=O)c1ccc[n+]([C@@H]2O[C@H](COP(=O)(O)OP(=O)(O)OC[C@H]3O[C@@H](n4cnc5c(N)ncnc54)[C@@H]4OP(=O)(O)O[C@@H]43)[C@@H](O)[C@H]2O)c1 [2′,3′-cNADP^+]
